Measured values as given in patent US10328082B2, “Methods of use and combinations” (Pfizer Inc., priority 2014, dated 2019).

Key:
[1] = target: T1, human Androgen Receptor (AR) (Homo sapiens, UniProt P10275); assay: Androgen Receptor-Mediated Transcriptional Assay; assay type: cell-based; details: CV-1 cells transiently transfected with full length human AR and ARE-luciferase, 16-18 hours incubation
T1 construct: transiently transfected in T225 cm^2 flasks with a full length human Androgen Receptor (AR) cDNA; expressed in transfected cells; host or cells: CV-1 cells (ATCC CCL-70), transiently transfected
T1 sequence (P10275 1-920): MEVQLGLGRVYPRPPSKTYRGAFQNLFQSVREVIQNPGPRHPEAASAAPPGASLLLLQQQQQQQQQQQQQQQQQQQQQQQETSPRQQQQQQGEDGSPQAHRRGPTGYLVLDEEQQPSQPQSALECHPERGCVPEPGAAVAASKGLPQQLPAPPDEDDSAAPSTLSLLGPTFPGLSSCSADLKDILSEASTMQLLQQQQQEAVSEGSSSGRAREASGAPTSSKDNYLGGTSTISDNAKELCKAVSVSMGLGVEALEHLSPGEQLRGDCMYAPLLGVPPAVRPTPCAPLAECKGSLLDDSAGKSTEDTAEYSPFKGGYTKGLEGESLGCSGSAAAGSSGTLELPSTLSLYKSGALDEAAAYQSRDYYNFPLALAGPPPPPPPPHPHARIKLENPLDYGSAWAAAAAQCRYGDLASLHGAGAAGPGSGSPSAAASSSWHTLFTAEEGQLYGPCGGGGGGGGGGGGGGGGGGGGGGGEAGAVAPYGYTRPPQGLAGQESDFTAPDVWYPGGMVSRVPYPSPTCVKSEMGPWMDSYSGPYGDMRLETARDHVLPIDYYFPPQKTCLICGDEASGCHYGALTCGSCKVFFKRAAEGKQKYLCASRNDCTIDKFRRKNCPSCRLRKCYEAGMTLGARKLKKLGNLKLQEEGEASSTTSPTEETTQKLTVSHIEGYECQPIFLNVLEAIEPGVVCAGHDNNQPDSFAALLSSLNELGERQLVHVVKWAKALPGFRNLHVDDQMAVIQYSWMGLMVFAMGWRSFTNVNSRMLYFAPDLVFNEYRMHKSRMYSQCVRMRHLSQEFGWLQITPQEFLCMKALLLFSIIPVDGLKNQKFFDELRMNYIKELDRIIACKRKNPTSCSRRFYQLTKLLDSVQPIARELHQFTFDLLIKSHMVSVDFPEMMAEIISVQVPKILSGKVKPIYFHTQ
Method: Androgen Receptor-Mediated Transcriptional Assay Summary
CV-1 cells (American Tissue Culture Collection cat# CCL-70) were expanded in Growth Media and transiently transfected in T225 cm^2 flasks with a full length human Androgen Receptor (AR) cDNA in the pcDNA3 expression vector and a human Androgen Response Element (ARE)-luciferase cDNA in the pGL3 vector (both from Invitrogen). DNA (μg) and Lipofectamine (μl) at a ratio of 1:3 were incubated with the cells in a total volume of 55 mL Basal Media for 4 hours. Cells were harvested by trypsinization and frozen back (−150° C. cryomed) at a concentration of 4.3 million cells/mL.
On the day of the assay, frozen cells were thawed and re-suspended in Re-suspension Media and plated at 40,000 cells/well (in 100 μL volume) in 96 well white plates and were incubated for at least 4 h at 37° C., 5% CO2. After incubation, cells were treated with the compounds to be screened. 10 mM stocks of the compounds were serially diluted 1:10 in 100% DMSO followed by an additional 1:100 dilution in Assay Media. These dilution series were added to the cell plates resulting in a further 1:10 dilution and a final % DMSO of 0.1%. The vehicle control wells also contained this dilution of DMSO and the positive control wells contained […] (DHT) as an AR agonist at final concentration of 0.3 nM in 0.1% DMSO. Cells were incubated for 16-18 hours at 37° C. and 5% CO2. Then the culture media was removed from and the cells were lysed in 20 μL of cell lysis reagent for 5 minutes at room temperature. 50 μL of luciferase reagent was added to each well and luminescence, over 5 seconds, was measured.
EC50 (half maximal effective concentration) was calculated from concentration series plots which generated sigmoidal curves. Xlfit software was used to plot the best fit of the % effect vs concentration and to calculate the EC50.

[2] = DSC profile of the crystalline form; assay type: physicochemical; details: demonstrated by the high DSC melting point and DSC profile
Method: DSC measurements were performed with a Discovery DSC (TA instruments) equipped with a refrigerated cooling accessory. Approximately 2-5 mg of solid sample was weighed into a standard/Tzero aluminum pan and non-hermetically sealed. The sample was placed in a cell with continuous dry nitrogen purge (50 mL/min) and heated from 25° C. to 250° C. at 10° C./min heating rate. The cell constant was determined using indium and temperature calibration was performed using indium and tin as standards. The experimental data were analyzed using commercially available software (TA Universal Analysis 2000/Trios software, TA Instruments).
The characterization data disclosed herein confirms the crystalline nature of the 6-[(4R)-4-methyl-1,1-dioxido-1,2,6-thiadiazinan-2-yl]isoquinoline-1-carbonitrile free base Form (1) material and, as such, that it is a useful form for pharmaceutical development. For example, crystalline materials are generally considered to be an advantageous form for drug substance manufacturing because, for example, they are more easily purified, can be prepared with higher yields, have improved filtration and drying characteristics and improved flow and handling characteristics.

Molecule	EC50 ([1]; Compounds 1-22) [nM]	other results
6-{(2R,5R)-2-[(1R)-1-hydroxyethyl]-5-methylpyrrolidin-1-yl}isoquinoline-1-carbonitrile [Compound 31]		EC50 ([1]; Compounds 23-39): 474 nM
C[C@@H]1CNS(=O)(=O)N(c2ccc3c(C#N)nccc3c2)C1 [6-[(4R)-4-methyl-1,1-dioxido-1,2,6-thiadiazinan-2-yl]isoquinoline-1-carbonitrile]		hygroscopic nature [2]: non-hygroscopic; thermal stability [2]: thermal stability
6-[(4S)-4-ethyl-1,1-dioxido-1,2,6-thiadiazinan-2-yl]isoquinoline-1-carbonitrile [Compound 21]	8	
C[C@H]1CN(C)S(=O)(=O)N1c1ccc2c(C#N)nccc2c1 [Compound 5]	5	
6-[(4S)-4-(3-methylphenyl)-1,1-dioxido-1,2,6-thiadiazinan-2-yl]isoquinoline-1-carbonitrile [Compound 20]	8	
